Drawing on patent US9914730B2, “Azaquinazoline inhibitors of Atypical protein Kinase C” (Ignyta, Inc., priority 2012, dated 2018), this text covers IC50 for 24 compounds.

The IC50 is the midpoint of a concentration-inhibition curve.

The target of the experiment is T1, full-length human PKCι (Homo sapiens, UniProt P41743).
T1 construct: Recombinant, full-length human PKCι expressed in Sf21 insect cells is also commercially available; purchased; host or cells: Sf21 insect cells
T1 sequence (P41743 1-596): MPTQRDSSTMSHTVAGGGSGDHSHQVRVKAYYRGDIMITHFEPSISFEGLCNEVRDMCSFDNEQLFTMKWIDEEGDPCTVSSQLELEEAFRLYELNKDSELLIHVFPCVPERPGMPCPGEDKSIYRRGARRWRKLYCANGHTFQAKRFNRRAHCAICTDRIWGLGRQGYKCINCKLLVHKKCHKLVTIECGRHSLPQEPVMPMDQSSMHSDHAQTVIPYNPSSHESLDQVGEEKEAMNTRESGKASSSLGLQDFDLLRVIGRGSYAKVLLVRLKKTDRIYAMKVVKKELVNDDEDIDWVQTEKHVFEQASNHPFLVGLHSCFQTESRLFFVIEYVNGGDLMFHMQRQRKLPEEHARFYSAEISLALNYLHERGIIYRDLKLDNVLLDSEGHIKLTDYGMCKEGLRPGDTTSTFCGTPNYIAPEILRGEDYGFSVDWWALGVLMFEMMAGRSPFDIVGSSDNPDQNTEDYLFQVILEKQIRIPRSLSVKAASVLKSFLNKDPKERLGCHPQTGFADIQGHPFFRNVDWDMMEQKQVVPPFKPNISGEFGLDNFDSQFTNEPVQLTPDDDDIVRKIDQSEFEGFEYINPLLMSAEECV
Kind of experiment: PKCι IC50 IMAP assay, full-length PKCι at 150 μM ATP. It is filed as biochemical. As to conditions: read-out: IC50 in IMAP assay against full length PKCi at 150 μM ATP. In short, it runs like this: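 IC50 from IMAP FP (ex 485/em 530 nm) after 60 min room-temperature reaction in pH 7.5 tris buffer with 9 mM MgCl2 and 0.9 mM DTT. Enzyme: full-length Sf21-expressed PKCι (~15 pM); ATP 150 μM, five times KM^APP; FAM-labelled peptide 100 nM; DMSO 4%.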

Each structure is given as a SMILES string.

Regarding `Oc1nc(-c2ccnc(Nc3cnn(CC4CCNCC4)c3)c2)nc2cnccc12` [Example 499, 2-[2-(1-Piperidin-4-ylmethyl-1H-pyrazol-4-ylamino)-pyridin-4-yl]-pyrido[3,4-d]pyrimidin-4-ol], the IC50 was in the range of 10000 to 40000 nM.

Consider `C[C@@H](Nc1cc(-c2nc(N3CCNCC3)c3c(C4CC4)cncc3n2)ccn1)c1c(F)cccc1F` [Example 653, [4-(5-Cyclopropyl-4-piperazin-1-yl-pyrido[3,4-d]pyrimidin-2-yl)-pyridin-2-yl]-[(R)-1-(2,6-difluoro-phenyl)-ethyl]-amine], for which the IC50 is below 100 nM. `FC(F)(F)c1cccc(Nc2cc(-c3nc(N4CCNCC4)c4c(C5CC5)cncc4n3)ccn2)n1` [Example 534, [4-(5-Cyclopropyl-4-piperazin-1-yl-pyrido[3,4-d]pyrimidin-2-yl)-pyridin-2-yl]-(6-trifluoromethyl-pyridin-2-yl)-amine]: the IC50 was below 100 nM.

Consider `COc1cncc2nc(-c3ccnc(Nc4nccs4)c3)nc(N3CCNCC3)c12` [Example 219, [4-(5-Methoxy-4-piperazin-1-yl-pyrido[3,4-d]pyrimidin-2-yl)-pyridin-2-yl]-thiazol-2-yl-amine], for which the IC50 lay within 100 to 1000 nM. As to `COc1cncc2nc(-c3ccncc3)nc(N3CCN[C@@H](C(O)c4ccc(F)cc4)C3)c12` (mixture of isomers) [Example 77, (4-fluorophenyl) [(2R)-4-[5-methoxy-2-(pyridin-4-yl)-pyrido[3,4-d]-pyrimidin-4-yl]-piperazin-2-yl]-methanol], the IC50 was below 100 nM.

With `CC(C)(C)c1cc2c(-c3nc(N4CCNCC4)c4c(C5CC5)cnc(Cl)c4n3)ccnc2[nH]1` [Example 2118, 2-(2-tert-Butyl-1H-pyrrolo[2,3-b]pyridin-4-yl)-8-chloro-5-cyclopropyl-4-piperazin-1-yl-pyrido[3,4-d]pyrimidine], the IC50 is below 100 nM. As for `COc1cncc2nc(-c3ccncc3)nc(N3CCN[C@H](Cc4ccccc4)C3)c12` [Example 37, (3R)-3-benzyl-1-[5-methoxy-2-(pyridin-4-yl)pyrido[3,4-d]pyrimidin-4-yl]piperazine], the IC50 is below 100 nM. The figure for `Cc1cncc2nc(-c3ccncc3)nc(N3CCNCC3)c12` [Example 138, 1-[5-methyl-2-(pyridin-4-yl)pyrido[3,4-d]pyrimidin-4-yl]piperazine] is below 100 nM; for `CN1CCN(c2cccc(Nc3cc(-c4nc(N5CCC5)c5c(C6CC6)cncc5n4)ccn3)c2)CC1` [Example 761, [4-(4-Azetidin-1-yl-5-cyclopropyl-pyrido[3,4-d]pyrimidin-2-yl)-pyridin-2-yl]-[3-(4-methyl-piperazin-1-yl)-phenyl]-amine] it is 100 to 1000 nM; for `Fc1ccc(F)c(Nc2cc(-c3nc(N4CCNCC4)c4c(C5CC5)cncc4n3)ccn2)n1` [Example 548, [4-(5-Cyclopropyl-4-piperazin-1-yl-pyrido[3,4-d]pyrimidin-2-yl)-pyridin-2-yl]-(3,6-difluoro-pyridin-2-yl)-amine] it is below 100 nM. For `Cc1ccnc(Nc2cc(-c3nc(N4CCNCC4)c4c(Cl)cncc4n3)ccn2)c1` [Example 256, [4-(5-Chloro-4-piperazin-1-yl-pyrido[3,4-d]pyrimidin-2-yl)-pyridin-2-yl]-(4-methyl-pyridin-2-yl)-amine], the IC50 is below 100 nM. For `COc1cncc2nc(-c3ccnc(Nc4ccc(C)nc4)c3)nc(N3CCNCC3)c12` [Example 393, [4-(5-Methoxy-4-piperazin-1-yl-pyrido[3,4-d]pyrimidin-2-yl)-pyridin-2-yl]-(6-methyl-pyridin-3-yl)-amine], the IC50 is below 100 nM. `OC[C@H](O)CN1CCN(c2nc(-c3ccnc(Nc4ccccc4)c3)nc3cncc(C4CC4)c23)CC1` [Example 608, (R)-3-{4-[5-Cyclopropyl-2-(2-phenylamino-pyridin-4-yl)-pyrido[3,4-d]pyrimidin-4-yl]-piperazin-1-yl}-propane-1,2-diol]: the IC50 was in the range of 100 to 1000 nM. `COc1cncc2nc(-c3ccnc(NC(=O)Cc4ccccc4)c3)nc(N3CCNCC3)c12` [Example 371, N-[4-(5-Methoxy-4-piperazin-1-yl-pyrido[3,4-d]pyrimidin-2-yl)-pyridin-2-yl]-2-phenyl-acetamide]: the IC50 is below 100 nM. Regarding `FC(F)(F)c1ccc(Nc2cc(-c3nc(N4CCNCC4)c4c(C5CC5)cncc4n3)ccn2)cc1` [Example 595, [4-(5-Cyclopropyl-4-piperazin-1-yl-pyrido[3,4-d]pyrimidin-2-yl)-pyridin-2-yl]-(4-trifluoromethyl-phenyl)-amine], the IC50 is below 100 nM. As for `COc1cncc2nc(-c3ccnc(NC(=O)Cc4ccc(N)cc4)c3)nc(N[C@@H]3CCNC3)c12` [Example 327, 2-(4-Amino-phenyl)-N-{4-[5-methoxy-4-((R)-pyrrolidin-3-ylamino)-pyrido[3,4-d]pyrimidin-2-yl]-pyridin-2-yl}-acetamide], the figure is below 100 nM. Regarding `COc1cncc2nc(-c3ccnc(Nc4cnccn4)c3)nc(N3CCNCC3)c12` [Example 201, [4-(5-Methoxy-4-piperazin-1-yl-pyrido[3,4-d]pyrimidin-2-yl)-pyridin-2-yl]-pyrazin-2-yl-amine], the IC50 was below 100 nM. With `c1cc(-c2nc(N3CCNCC3)c3c(C4CC4)cncc3n2)c2c3c([nH]c2n1)CCCC3` [Example 2208, 4-(5-Cyclopropyl-4-piperazin-1-yl-pyrido[3,4-d]pyrimidin-2-yl)-6,7,8,9-telrahydro-5H-pyrido[2,3-b]indole], the IC50 is 100 to 1000 nM. The figure for `O[C@H]1c2ccccc2C[C@@H]1Nc1cc(-c2nc(N3CCNCC3)c3c(C4CC4)cncc3n2)ccn1` (relative stereo) [Example 2158, trans-2-[4-(5-Cyclopropyl-4-piperazin-1-yl-pyrido[3,4-d]pyrimidin-2-yl)-pyridin-2-ylamino]-indan-1-ol] is below 100 nM; for `C[C@H]1CN(c2nc(-c3ccnc(Nc4nc(F)ccc4F)c3)nc3cncc(C4CC4)c23)CCN1` [Example 694, {4-[5-Cyclopropyl-4-((S)-3-methyl-piperazin-1-yl)-pyrido[3,4-d]pyrimidin-2-yl]-pyridin-2-yl}-(3,6-difluoro-pyridin-2-yl)-amine] it is below 100 nM; for `C#CC1CN(c2nc(-c3ccncc3)nc3cnccc23)CCN1` (stereo not drawn) [Example 71, 3-ethynyl-1-[2-(pyridin-4-yl)-pyrido[3,4-d]-pyrimidin-4-yl]-piperazine] it is 1000 to 10000 nM.

In the case of `N[C@@H](CNc1nc(-c2ccncc2)nc2c(-c3ccccn3)nccc12)Cc1ccccc1` [Example 122, (R)-3-Phenyl-N^1-(2-pyridin-4-yl-8-pyridin-2-yl-pyrido[3,4-d]pyrimidin-4-yl)-propane-1,2-diamine], the IC50 fell in the range of 100 to 1000 nM. For the compound `Fc1ccc(Nc2cc(-c3nc(N4CCNCC4)c4c(C5CC5)cncc4n3)c(F)cn2)cc1` [Example 765, [4-(5-Cyclopropyl-4-piperazin-1-yl-pyrido[3,4-d]pyrimidin-2-yl)-5-fluoro-pyridin-2-yl]-(4-fluoro-phenyl)-amine], the IC50 was below 100 nM. Consider `COc1cncc2nc(-c3ccncc3)nc(NC[C@H](Cc3ccccc3)N(C)C)c12` [Example 49, [(2S)-1-{[5-methoxy-2-(pyridin-4-yl)-pyrido[3,4-d]-pyrimidin-4-yl]-amino}-3-phenylpropan-2-yl]dimethylamine], for which the IC50 fell in the range of 1000 to 10000 nM.
